The numbers were not newly measured in publication PMC4810081, “Venetoclax (ABT-199) Might Act as a Perpetrator in Pharmacokinetic Drug–Drug Interactions” (Pharmaceutics, 2016), which cites them from elsewhere.

The data set addresses T1, BCRP (Homo sapiens, UniProt Q9UNQ0).
T1 construct: expressed in transfected cells; host or cells: MDCKII-BCRP (gift of A. H. Schinkel and P. Borst)
Details: method as in PMID 20222053. To be noted: control compound; read-out: IC50 BCRP inhibition, control compound; cited from earlier work.

T1 sequence (Q9UNQ0 whole entry): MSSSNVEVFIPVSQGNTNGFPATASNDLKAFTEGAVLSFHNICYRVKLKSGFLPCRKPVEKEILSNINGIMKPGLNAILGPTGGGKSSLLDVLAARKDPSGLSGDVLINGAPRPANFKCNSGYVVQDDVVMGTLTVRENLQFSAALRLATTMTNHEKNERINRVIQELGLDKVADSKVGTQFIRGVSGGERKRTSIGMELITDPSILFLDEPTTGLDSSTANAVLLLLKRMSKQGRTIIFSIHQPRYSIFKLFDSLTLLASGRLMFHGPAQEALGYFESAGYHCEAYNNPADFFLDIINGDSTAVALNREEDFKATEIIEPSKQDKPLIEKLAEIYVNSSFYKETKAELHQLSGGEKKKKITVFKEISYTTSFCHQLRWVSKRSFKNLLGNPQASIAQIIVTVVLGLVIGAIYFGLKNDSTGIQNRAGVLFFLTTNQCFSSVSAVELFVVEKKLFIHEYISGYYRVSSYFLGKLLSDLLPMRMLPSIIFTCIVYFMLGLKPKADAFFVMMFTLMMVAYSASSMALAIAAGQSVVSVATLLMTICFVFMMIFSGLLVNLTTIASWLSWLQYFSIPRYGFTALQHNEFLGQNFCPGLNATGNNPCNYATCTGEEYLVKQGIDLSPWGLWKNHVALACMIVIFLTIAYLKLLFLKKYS

For `COc1ccc2c3c([nH]c2c1)[C@H](C=C(C)C)N1C(=O)[C@@H]2CCCN2C(=O)[C@@H]1C3` [FTC, fumitremorgin C], the IC50 (usually the point on the concentration scale where inhibition reaches its midpoint) was 0.7 ± 0.3 µM.
